Series [1] deals with Muscarinic acetylcholine receptor M3 (Homo sapiens, UniProt P20309). Description: Antagonist activity at human muscarinic M3 receptor expressed in PathHunter U2OS CHRM3 beta-arrestin cells preincubated for 30 mins followed by agonist addition at 6 times EC80 and measured after 90 to 180 mins by PathHunter assay. The format is functional, cell-based.
The nature of series [2]: Half life in male Sprague-Dawley rat at 4 mg/kg, iv administered via tail vein and measured upto 24 hrs by LC-MS/MS analysis. Particulars: in vivo. The format is ADME, organism-based.
A short description of series [3]: AUC (0 to infinity) in male Sprague-Dawley rat at 4 mg/kg, iv administered via tail vein and measured upto 24 hrs by LC-MS/MS analysis. The format is ADME, organism-based. As to conditions: in vivo.
Series [4] can be described thus: Clearance in male Sprague-Dawley rat at 4 mg/kg, iv administered via tail vein and measured upto 24 hrs by LC-MS/MS analysis. The format is ADME, organism-based. As to conditions: in vivo.
A short description of series [5]: Half life in male Sprague-Dawley rat at 25 mg/kg, po measured upto 24 hrs by LC-MS/MS analysis. It is filed as ADME, organism-based. Particulars: in vivo.
The nature of series [6]: Oral bioavailability in male Sprague-Dawley rat at 25 mg/kg measured upto 24 hrs by LC-MS/MS analysis. The format is ADME, organism-based. As to conditions: in vivo.
Series [7] is described as follows: Plasma protein binding in human assessed as binding rate at 500 ng/ml prewarmed for 30 mins by LC-MS/MS analysis. The format is ADME, cell-free. As to conditions: read-out: PPB (converted).
The nature of series [8]: Plasma protein binding in rat assessed as binding rate at 1200 ng/ml prewarmed for 30 mins by LC-MS/MS analysis. As to conditions: read-out: PPB (converted). It is filed as ADME, cell-free.
Series [9] can be described thus: Metabolic stability in human liver microsomes at 1 uM measured upto 120 mins by LC-MS/MS analysis. Particulars: 2 h. The format is ADME, Microsome. Background: Microsomes from liver hold many membrane-bound enzymes, among them those of drug oxidation.
Series [10] is described as follows: Metabolic stability in Beagle dog liver microsomes at 1 uM measured upto 120 mins by LC-MS/MS analysis. Particulars: 2 h. It is filed as ADME, Canis lupus familiaris, Microsome.
A short description of series [11]: Cmax in female Sprague-Dawley rat plasma at 10 mg/kg, IG administered as single dose. It is filed as ADME, organism-based. As to conditions: po.
Series [12] in a line: Ratio of Cmax in male Sprague-Dawley rat brain to plasma at 10 mg/kg, IG administered as single dose. As to conditions: brain and plasma, po, read-out: BPR. The format is ADME, organism-based.
Series [13] is described as follows: Acute toxicity in Sprague-Dawley rat assessed as reduction in animal activity at 700 mg/kg, IG measured for 7 days. It is filed as organism-based. As to conditions: in vivo, po, 168 h, time 7 day.
Series [14] in a line: Acute toxicity in IG dosed Sprague-Dawley rat assessed as minimum lethal dose measured for 7 days. It is filed as organism-based. Particulars: in vivo, po, 168 h, time 7 day.
A short description of series [15]: Subacute toxicity in Sprague-Dawley rat assessed as increase in aspartate aminotransferase level in serum at 140 mg/kg, IG administered once a day for 14 days. It is filed as organism-based. Particulars: in vivo, po, 336 h, time 14 day.
Series [16] is described as follows: Subacute toxicity in Sprague-Dawley rat assessed as increase in spleen to brain ratio at 140 mg/kg, IG administered once a day for 14 days. The format is organism-based. As to conditions: in vivo, po, 336 h, time 14 day.

The source of these data is ChEMBL document CHEMBL5512623, “Discovery of the novel and potent histamine H1 receptor antagonists for treatment of allergic diseases” (Eur J Med Chem, 2024).

Muscarinic acetylcholine receptor M3, sequence (P20309 whole entry): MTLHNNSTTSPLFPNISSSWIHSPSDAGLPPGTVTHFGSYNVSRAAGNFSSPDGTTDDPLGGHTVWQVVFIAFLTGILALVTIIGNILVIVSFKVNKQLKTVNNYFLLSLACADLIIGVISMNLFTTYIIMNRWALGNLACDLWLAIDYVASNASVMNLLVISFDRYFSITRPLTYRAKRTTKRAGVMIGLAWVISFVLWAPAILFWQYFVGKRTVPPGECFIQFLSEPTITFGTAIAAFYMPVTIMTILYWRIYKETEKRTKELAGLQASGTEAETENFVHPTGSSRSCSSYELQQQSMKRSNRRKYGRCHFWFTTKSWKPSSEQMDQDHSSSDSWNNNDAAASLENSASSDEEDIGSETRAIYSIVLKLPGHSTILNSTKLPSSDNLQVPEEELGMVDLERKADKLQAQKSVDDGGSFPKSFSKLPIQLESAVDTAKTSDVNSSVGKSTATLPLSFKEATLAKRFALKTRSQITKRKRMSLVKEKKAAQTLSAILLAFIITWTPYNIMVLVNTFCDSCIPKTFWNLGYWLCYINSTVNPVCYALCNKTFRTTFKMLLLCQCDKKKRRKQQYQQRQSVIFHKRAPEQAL

One may read the IC50 as the concentration at which inhibition is half-maximal. Low values mean inhibition by little substance, high ones a need for much substance. As a reminder, the half-life is the time in which the quantity being followed falls by half. The AUC(0-inf) is total exposure, with the tail of the curve extrapolated. Usually clearance stands for the rate of elimination divided by the concentration. A low value points to inefficient removal. Usually bioavailability stands for dose-corrected exposure relative to a reference, in per cent. A lower bioavailability goes with poor availability. What is called Cmax is the highest concentration seen after dosing. `CC(C)(C(=O)O)c1cccc(CCCN2CCC(=C3c4ccc(Cl)cc4CCc4cccnc43)CC2)c1` displayed an IC50 in series [1] greater than 10 µM. The values for the half-life in [2] and in series [5] were 0.653 h and 4.05 h, respectively. This compound registered an AUC(0-inf) in series [3] of 1820 ng·h/mL. The clearance in series [4] stood at 37 mL/min/kg. Further, the bioavailability in series [6] amounted to 59.5%. Also, the fraction unbound at 0.5 h, 500 ng/ml in series [7] is 0.321. In addition, the fraction unbound at 0.5 h, 1200 ng/ml in series [8] was 0.302. The Stability result in [9] and in [10] was “Stable” throughout. Also, the Cmax in series [11] was found to be 1930 ng/g. Besides, the Kp in series [12] is 0.066. Also, the Activity result in series [13], in [15] and in series [16] was “Toxic” throughout. Moreover, in series [14], the MLD amounted to 350 mg/kg.
